Data reported in patent publication US20040023994A1 (priority 2002, published 2004).
Entries after “also recorded” stand apart in the source; their conditions may differ.

Columns and labels:
ACHN cells = assay: MTT cytotoxicity assay; type: cell-based, human; details: for IC50: 72 h incubation, MTT
Procedure: (§1) Preliminary studies examining the in vitro cytotoxicity of cis-AVTP and trans-AVTG as compared to the parent drugs, were carried out using the 3-[4,5-dimethylthiazol-2-yl]-2,5-diphenyl tetrazolium bromide (MTT) cytotoxicity assay.

A-498 cells = assay: MTT cytotoxicity assay; type: cell-based, human; details: for IC50: A-498, 72 h incubation, MTT
Procedure: as §1

In the case of `Cn1cnc([N+](=O)[O-])c1Sc1ncnc2nc[nH]c12` [AZA, azathioprine], the IC50 (ACHN cells; Homo sapiens) is reported as 22.1 µM and the IC50 (A-498 cells; Homo sapiens, A498) is reported as 50.2 ± 10.4 µM.

With `O=C(O)/C=C\Sc1ncnc2[nH]cnc12` [PTA, cis-3-(9H-purin-6-ylthio)acrylic acid] the cytotoxicity (ACHN cells; within the concentration range examined (up to 500 μM)) was “little cytotoxicity; also recorded: not cytotoxic” and the cytotoxicity (A-498 cells; A-498, within the concentration range examined (up to 500 μM)) was “little cytotoxicity; also recorded: not cytotoxic”.

Work on `CC(=O)C=Cc1ccccc1` [PBO, phenylbutenone] yielded an IC50 (ACHN cells) of 62.3 ± 10.7 µM and an IC50 (A-498 cells) of 252 ± 149 µM.
